From article PMC12461739, “Multi-targeted azacoumarin–cyanocinnamate hybrids induce G2/M arrest and apoptosis via tubulin, and COX-2/VEGFR modulation: insights from in vitro mechanistic basis and in vivo validation” (RSC Medicinal Chemistry, 2025)
Read-outs that look alike come from different tables or passages of the source.

What was measured:
MDA-MB 231 cells = assay: MTT antiproliferative assay, MDA-MB 231; assay type: cell-based, human; conditions: for IC50: Homo sapiens, MDA-MB-231, 48 h, MTT, 48 h treatment, read-out: IC50, antiproliferative activity toward MDA-MB 231
Description: (§1) The cytotoxic effects of the synthesized compounds were evaluated using the MTT assay. MCF-7, MDA-MB 231 (human breast cancer), and MCF-10A (non-tumorigenic breast epithelial) cells were seeded (1–3 × 10^4 cells per well) and incubated for 24 hours at 37 °C in a humidified atmosphere containing 5% CO2.[74] Following incubation, cells were treated with serial dilutions of the test compounds prepared in DMSO. The final concentration of DMSO in all wells, including controls, was maintained below 0.5% v/v to avoid solvent-related cytotoxicity. Doxorubicin was used as a positive control for comparison of antiproliferative activity. Following 48 hours of treatment, the culture medium was gently removed, and each well received 20 μL of MTT reagent (5 mg mL^−1 in phosphate-buffered saline). The plates were incubated at 37 °C for 4 hours to facilitate the enzymatic reduction of MTT into formazan by metabolically active cells. After incubation, the solution was discarded, and 100 μL of dimethyl sulfoxide was added. The absorbance of each well was measured at 570 nm using a microplate spectrophotometer. Cell viability was determined by comparing absorbance values to those of the untreated controls and expressed as a percentage. GraphPad Prism software was used to plot dose–response curves and calculate IC50 values.

[1] = MTT cytotoxicity assay, MCF-10A; assay type: cell-based, human; conditions: human, MCF-10A non-tumorigenic breast epithelial cells, MTT, 48 h treatment, non-tumorigenic breast epithelial cells; read-out: IC50, cytotoxicity toward MCF-10A
Description: as §1, with “MCF-7, MDA-MB 231 (human breast cancer), and MCF-10A (non-tumorigenic breast epithelial) cells were seeded (1–3 × 10^4 cells per well) and incubated for 24 hours at 37 °C in a humidified atmosphere containing 5% CO2.[74]” left out

MCF-10A cells = assay: MTT cytotoxicity assay, MCF-10A; assay type: cell-based, human
Description: as §1, with “MCF-7, MDA-MB 231 (human breast cancer), and MCF-10A (non-tumorigenic breast epithelial) cells were seeded (1–3 × 10^4 cells per well) and incubated for 24 hours at 37 °C in a humidified atmosphere containing 5% CO2.[74]” left out

MCF-7 cells = assay: MTT antiproliferative assay, MCF-7; assay type: cell-based, human; conditions: for IC50: MTT, 48 h treatment, read-out: IC50, antiproliferative activity toward MCF-7; for fold reduction of cytotoxic activity after acetylation of the hydroxyl group: MCF-7, vs parent compound (7 or 6a)
Description: as §1

[2] = FRAP (ferric reducing antioxidant power) assay; conditions: 37 °C, 60 min
Description: The resulting Fe^2+ forms a colored complex with the FRAP chromogenic probe, which can be quantitatively measured. The reaction mixture was prepared by combining FRAP assay buffer, FRAP probe, and FeCl3 solution as per the manufacturer's protocol. […] Absorbance was measured at 594 nm using a microplate reader after incubation at 37 °C for 60 minutes. Antioxidant activity was determined by comparing the absorbance of the samples to a standard curve generated using known concentrations of the ferrous standard provided in the kit.

Row | IC50 (MDA-MB 231 cells) [µM] | IC50 (MCF-7 cells; Homo sapiens, MCF7, 48 h) [µM] | IC50 [2] [µM] | Structure (SMILES) | IC50 at 48 h [1] [µM] | selectivity index toward breast cancer cells (MCF-10A cells; MCF-10A vs MCF-7 / MDA-MB 231) | IC50 (MCF-10A cells; MTT, 48 h treatment, non-tumorigenic breast epithelial cells, read-out: IC50, cytotoxicity toward MCF-10A) [µM] | IC50 (MCF-7 cells) [µM] | fold reduction of cytotoxic activity after acetylation of the hydroxyl group (MCF-7 cells) [fold] | fold improvement in cytotoxicity in MDA-MB-231 compared to MCF-7 (MDA-MB 231 cells; MDA-MB-231 vs MCF-7) [fold]
1 | 8.4 ± 0.61 | 12.6 ± 0.61 |  | COc1cccc2c1C(=O)c1c(O)c3c(c(O)c1C2=O)C[C@@](O)(C(=O)CO)C[C@@H]3O[C@H]1C[C@H](N)[C@H](O)[C@H](C)O1 [doxorubicin, reference compound] | 16.2 ± 0.55 | 1.3 | 16.2 ± 0.55 |  |  | 
2 |  |  | 110 ± 4.21 | O=C1O[C@H]([C@@H](O)CO)C(O)=C1O [ascorbic acid, reference compound] |  |  |  |  |  | 
3 | 19.6 ± 1.72 | 26.6 ± 1.56 |  | CCOC(=O)/C(C#N)=C/c1ccc(Oc2c(C)c3cc(Br)c(O)c(Br)c3[nH]c2=O)c(OC)c1 [Compound 6a, ethyl (E)-2-cyano-3-(4-((6,8-dibromo-7-hydroxy-4-methyl-2-oxo-1,2-dihydroquinolin-3-yl)oxy)-3-methoxyphenyl)acrylate] |  |  |  | 26.6 ± 1.56 |  | 
4 | 31.1 ± 1.87 | 112 ± 6.57 |  | CCOC(=O)/C(C#N)=C/c1cc(Br)c(Oc2c(C)c3cc(Br)c(O)c(Br)c3[nH]c2=O)c(Br)c1 [Compound 6b, ethyl (E)-2-cyano-3-(3,5-dibromo-4-((6,8-dibromo-7-hydroxy-4-methyl-2-oxo-1,2-dihydroquinolin-3-yl)oxy)phenyl)acrylate] |  |  |  | 112 ± 6.57 |  | ~3.6

Row | Structure (SMILES) | IC50 (MDA-MB 231 cells) [µM] | IC50 (MCF-7 cells; Homo sapiens, MCF7, 48 h) [µM] | IC50 [2] [µM] | IC50 at 48 h [1] [µM] | selectivity index toward breast cancer cells (MCF-10A cells; MCF-10A vs MCF-7 / MDA-MB 231) | IC50 (MCF-10A cells; MTT, 48 h treatment, non-tumorigenic breast epithelial cells, read-out: IC50, cytotoxicity toward MCF-10A) [µM] | IC50 (MCF-7 cells) [µM] | fold reduction of cytotoxic activity after acetylation of the hydroxyl group (MCF-7 cells) [fold] | fold improvement in cytotoxicity in MDA-MB-231 compared to MCF-7 (MDA-MB 231 cells; MDA-MB-231 vs MCF-7) [fold]
5 | CCOC(=O)/C(C#N)=C/c1ccc(Oc2c(C)c3cc(Br)c(OC(C)=O)c(Br)c3[nH]c2=O)c(OC)c1 [Compound 9, ethyl (E)-3-(4-((7-acetoxy-6,8-dibromo-4-methyl-2-oxo-1,2-dihydroquinolin-3-yl)oxy)-3-methoxyphenyl)-2-cyanoacrylate] | 44.2 ± 2.96 | 33.4 ± 1.96 |  |  |  |  | 33.4 ± 1.96 | 1.25 | 
6 | CCOC(=O)/C(C#N)=C/c1ccc(Oc2c(C)c3cc(Br)c(OC(C)=O)c(Br)c3[nH]c2=O)cc1 [Compound 8, ethyl (E)-3-(4-((7-acetoxy-6,8-dibromo-4-methyl-2-oxo-1,2-dihydroquinolin-3-yl)oxy)phenyl)-2-cyanoacrylate] | 26.9 ± 0.79 | 17.8 ± 1.05 |  |  |  |  | 17.8 ± 1.05 | 2.3 | 
